{
  "source": "patent US7618972B2",
  "about": "“Substituted triazole derivatives as oxytocin antagonists” (Pfizer Inc, priority 2005, dated 2009)",
  "target": "T1, oxytocin receptor (CHO-OTR/NFAT-β-Lactamase cells) (Homo sapiens, UniProt P30559)",
  "T1 construct": "expressed in transfected cells; host or cells: CHO-OTR cell line, further transfected with the NFAT-β-lactamase reporter construct",
  "T1 sequence (P30559 1-389)": "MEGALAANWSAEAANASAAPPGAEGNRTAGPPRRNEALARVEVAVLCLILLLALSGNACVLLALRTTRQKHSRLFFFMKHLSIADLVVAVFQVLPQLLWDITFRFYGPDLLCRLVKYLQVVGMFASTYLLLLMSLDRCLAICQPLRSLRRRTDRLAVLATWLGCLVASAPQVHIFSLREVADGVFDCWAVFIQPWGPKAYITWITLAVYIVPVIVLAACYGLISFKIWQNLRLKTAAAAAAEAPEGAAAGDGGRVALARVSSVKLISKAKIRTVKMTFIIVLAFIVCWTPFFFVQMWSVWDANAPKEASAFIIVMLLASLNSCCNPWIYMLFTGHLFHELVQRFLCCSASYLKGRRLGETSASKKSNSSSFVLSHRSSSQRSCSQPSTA",
  "experiment": "Oxytocin Receptor Beta-Lactamase Assay",
  "assay_type": "cell-based",
  "details": "oxytocin antagonist activity, n=3",
  "description": "A suitable assay for determining the oxytocin antagonist activity of a compound is detailed herein below.\nOxytocin Receptor Beta-Lactamase Assay\nCells used are CHO-OTR/NFAT-β-Lactamase. The NFAT-β-lactamase expression construct was transfected into the CHO-OTR cell line and clonal populations were isolated via fluorescence activated cell sorting (FACS). An appropriate clone was selected to develop the assay. […]\nCells grown at 80-90% confluence were harvested and counted. […]\nPreparation of 1 ml of 6× Loading Buffer with Enhanced Loading Protocol (this requires scale-up according to number of plates to be screened) • 12 μl of solution A (1 mM CCF4-AM in Dry DMSO) was added to 60 μl of solution B (100 mg/ml Pluronic-F127 in DMSO+0.1% Acetic Acid) and vortexed. • The resulting solution was added to […] of solution C (24% w/w PEG400, 18% TR40 v/v in water). • 75 μl of solution D was added (200 mM probenecid in 200 mM NaOH). • 10 μl of 6× Loading Buffer was added to all wells and incubated for 1.5 hrs-2 hrs at room temperature in the dark. • The plates were read using an LJL Analyst, Excitation 405 nm, Emission 450 nm and 530 nm, gain optimal, lagtime 0.40 μs integration, 4 flashes, bottom reading.",
  "data": [
    {"smiles": "COc1ccc(-n2c(C)nnc2-c2cnc(-c3ccc(F)cc3Cl)cn2)cn1", "note": "[Example 1, 2-(2-Chloro-4-fluoro-phenyl)-5-[4-(6-methoxy-pyridin-3-yl)-5-methyl-4H-[1,2,4]triazol-3-yl]-pyrazine]", "values": [
      {"measurement": "Ki", "value": 5.4, "unit": "nM"}
    ]}
  ]
}
